The source of these data is US20060134188A1, “Transdermal pharmaceutical preparation with a progesterone A-specific ligand (PRASL) as active ingredient” (priority 2004, published 2006).

Structures are written as SMILES.

For series [1] the following is noted: background statement; cited from earlier work.
Series [2] can be described thus: Solubility of PRASL in the adhesive matrix. The conditions noted are these: acrylate adhesive matrix DuroTak 387-2287. In kind it is physicochemical. The text has this: The selection of suitable adhesive matrices occurs based on the solubility of PRASL in the adhesive matrices. Suitable adhesive matrices for the present invention are those in which the solubility of PRASL is between 0.1 to 5%. Adhesive matrices, in which the solubility of PRASL is between 0.1 to 2%, have proven to be especially suitable.
If the solubility of the adhesive matrix used for PRASL is larger than 2 to 5%, as e.g. in the case of the acrylate adhesive matrix, DuroTak 387-2287, the entire effective ingredient amount dissolves after film-formation and the advantages of the amorphous effective ingredient dispersion according to the present invention cannot be employed.

With `O=C1OCc2cc(NC(=O)[C@](O)(CC3(c4cc(C(F)(F)F)ccc4F)CC3)C(F)(F)F)ccc21` [PRASL, (R)-3-{1-[2-fluoro-5-(trifluoromethyl)-phenyl]-cyclopropyl}-2-hydroxy-N-(phthalid-5-yl)-2-(trifluoromethyl)-propanamide], the “Daily dosage that activates pharmacological effects” value in series [1] is 30 micrograms. For the same compound, the “Solubility of the adhesive matrix for PRASL” value in series [2] fell in the range of 2 to 5%.
